Reference: patent US6355799B1, “Substituted benzene compounds, process for their preparation, and herbicidal and defoliant compositions containing them” (ISK Americas Incorporated, priority 1997, dated 2002)

Assays:
Assay type in all cases: in vivo
[1] = system: green foxtail (Setaria viridis, SETVI); assay: Post-emerge test, greenhouse herbicide activity screening; details: Setaria viridis, post-emergence, 336 h, post-emerge, phytotoxicity rating 0-100 at 14 days after application, read-out: Post-emerge Herbicidal Activity SETVI; for pest or weed control at 63 g/ha: 63 g ai/ha; for pest or weed control at 250 g/ha: 250 g ai/ha
Method in brief: (§1)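 Each test used a mechanized track sprayer delivering 187 l/ha of acetone solution at 15–1000 g ai/ha. Post-emerge foliage at 2–3 leaves was treated with added 0.25% v/v non-ionic surfactant and bottom-watered only. Injury was assessed on day 14, where 100 means total kill.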

[2] = system: large crabgrass (Digitaria sanguinalis, DIGSA); assay: as above; details: Digitaria sanguinalis, post-emergence, 336 h, post-emerge, phytotoxicity rating 0-100 at 14 days after application, read-out: Post-emerge Herbicidal Activity DIGSA; for pest or weed control at 63 g/ha: 63 g ai/ha; for pest or weed control at 250 g/ha: 250 g ai/ha
Method in brief: as §1

[3] = system: lambsquarters (Chenopodium album, CHEAL); assay: as above; details: Chenopodium album, post-emergence, 336 h, post-emerge, phytotoxicity rating 0-100 at 14 days after application, read-out: Post-emerge Herbicidal Activity CHEAL; for pest or weed control at 63 g/ha: 63 g ai/ha; for pest or weed control at 250 g/ha: 250 g ai/ha
Method in brief: as §1

[4] = system: ivyleaf morningglory (Ipomoea hederacea, IPOHE); assay: as above; details: Ipomoea, post-emergence, 336 h, post-emerge, phytotoxicity rating 0-100 at 14 days after application, read-out: Post-emerge Herbicidal Activity IPOHE; for pest or weed control at 63 g/ha: 63 g ai/ha; for pest or weed control at 250 g/ha: 250 g ai/ha
Method in brief: as §1

[5] = system: johnsongrass (Sorghum halepense, SORHA); assay: as above; details: Sorghum halepense, post-emergence, 336 h, post-emerge, phytotoxicity rating 0-100 at 14 days after application, read-out: Post-emerge Herbicidal Activity SORHA
Method in brief: as §1

[6] = system: velvetleaf (Abutilon theophrasti, ABUTH); assay: as above; details: Abutilon theophrasti, post-emergence, 336 h, post-emerge, phytotoxicity rating 0-100 at 14 days after application, read-out: Post-emerge Herbicidal Activity ABUTH; for pest or weed control at 63 g/ha: 63 g ai/ha; for pest or weed control at 250 g/ha: 250 g ai/ha
Method in brief: as §1

[7] = system: redroot pigweed (Amaranthus retroflexus, AMARE); assay: as above; details: Amaranthus retroflexus, post-emergence, 336 h, post-emerge, phytotoxicity rating 0-100 at 14 days after application, read-out: Post-emerge Herbicidal Activity AMARE; for pest or weed control at 63 g/ha: 63 g ai/ha; for pest or weed control at 250 g/ha: 250 g ai/ha
Method in brief: as §1

[8] = system: sicklepod (Cassia obtusifolia, CASOB); assay: as above; details: Senna obtusifolia, post-emergence, 336 h, post-emerge, phytotoxicity rating 0-100 at 14 days after application, read-out: Post-emerge Herbicidal Activity CASOB; for pest or weed control at 63 g/ha: 63 g ai/ha; for pest or weed control at 250 g/ha: 250 g ai/ha
Method in brief: as §1

[9] = system: barnyardgrass (Echinochloa crus-galli, ECHCG); assay: as above; details: Echinochloa crus-galli, post-emergence, 336 h, post-emerge, phytotoxicity rating 0-100 at 14 days after application, read-out: Post-emerge Herbicidal Activity ECHCG; for pest or weed control at 63 g/ha: 63 g ai/ha; for pest or weed control at 250 g/ha: 250 g ai/ha
Method in brief: as §1

[10] = system: green foxtail (Setaria viridis, SETVI); assay: Pre-emerge test, greenhouse herbicide activity screening; details: for Pre-emerge herbicidal activity, phytotoxicity rating SETVI: rating scale 0-100, 14 days after application
Method in brief: (§2)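 Plants grown in 10 cm pots of sandy loam mix received acetone-dissolved compounds through a moving flat-fan nozzle. Doses ranged from 15 to 1000 g ai/ha. Pre-emerge pots were seeded one day earlier, post-emerge pots 8–21 days earlier. Fourteen days on, each pot was graded 0–100 for damage.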

[11] = system: large crabgrass (Digitaria sanguinalis, DIGSA); assay: as above; details: for Pre-emerge herbicidal activity, phytotoxicity rating DIGSA: rating scale 0-100, 14 days after application
Method in brief: as §2

[12] = system: velvetleaf (Abutilon theophrasti, ABUTH); assay: as above; details: for Pre-emerge herbicidal activity, phytotoxicity rating ABUTH: rating scale 0-100, 14 days after application
Method in brief: as §2

[13] = system: sicklepod (Cassia obtusifolia, CASOB); assay: as above; details: for Pre-emerge herbicidal activity, phytotoxicity rating CASOB: rating scale 0-100, 14 days after application
Method in brief: as §2

[14] = system: johnsongrass (Sorghum halepense, SORHA); assay: as above; details: rating scale 0-100, 14 days after application
Method in brief: as §2

Row | Compound | pest or weed control at 63 g/ha [1] | pest or weed control at 250 g/ha [1] | pest or weed control at 63 g/ha [2] | pest or weed control at 250 g/ha [2] | pest or weed control at 63 g/ha [3] | pest or weed control at 250 g/ha [3] | pest or weed control at 63 g/ha [4] | pest or weed control at 250 g/ha [4] | pest or weed control at 63 g/ha [6] | pest or weed control at 250 g/ha [6] | pest or weed control at 63 g/ha [7] | pest or weed control at 250 g/ha [7] | pest or weed control at 63 g/ha [8] | pest or weed control at 250 g/ha [8] | pest or weed control at 63 g/ha [9] | pest or weed control at 250 g/ha [9] | other results
1 | Cc1nn(-c2c(F)cc(Cl)cc2NC(=O)c2ccc3ccccc3c2)c(=O)n1C(F)F [Compound 6-24] | 0% | 40% | 0% | 0% | 30% | 90% | 0% | 60% | 20% | 95% | 0% | 80% | 0% | 10% | 0% | 0% | pest or weed control at 63 g/ha ([5]; 63 g ai/ha): 0%; pest or weed control at 250 g/ha ([5]; 250 g ai/ha): 0%; pest or weed control at 63 g/ha ([10]; Setaria viridis, pre-emergence, 336 h, pre-emerge, rate 63 g ai/ha, phytotoxicity rating 0-100 at 14 days after application, read-out: Pre-emerge Herbicidal Activity SETVI): 0%; pest or weed control at 250 g/ha ([10]; Setaria viridis, pre-emergence, 336 h, pre-emerge, rate 250 g ai/ha, phytotoxicity rating 0-100 at 14 days after application, read-out: Pre-emerge Herbicidal Activity SETVI): 40%; pest or weed control at 63 g/ha ([11]; Digitaria sanguinalis, pre-emergence, 336 h, pre-emerge, rate 63 g ai/ha, phytotoxicity rating 0-100 at 14 days after application, read-out: Pre-emerge Herbicidal Activity DIGSA): 0%; pest or weed control at 250 g/ha ([11]; Digitaria sanguinalis, pre-emergence, 336 h, pre-emerge, rate 250 g ai/ha, phytotoxicity rating 0-100 at 14 days after application, read-out: Pre-emerge Herbicidal Activity DIGSA): 20%; pest or weed control at 63 g/ha ([12]; Abutilon theophrasti, pre-emergence, 336 h, pre-emerge, rate 63 g ai/ha, phytotoxicity rating 0-100 at 14 days after application, read-out: Pre-emerge Herbicidal Activity ABUTH): 0%; pest or weed control at 250 g/ha ([12]; Abutilon theophrasti, pre-emergence, 336 h, pre-emerge, rate 250 g ai/ha, phytotoxicity rating 0-100 at 14 days after application, read-out: Pre-emerge Herbicidal Activity ABUTH): 70%; pest or weed control at 63 g/ha ([13]; Senna obtusifolia, pre-emergence, 336 h, pre-emerge, rate 63 g ai/ha, phytotoxicity rating 0-100 at 14 days after application, read-out: Pre-emerge Herbicidal Activity CASOB): 0%; pest or weed control at 250 g/ha ([13]; Senna obtusifolia, pre-emergence, 336 h, pre-emerge, rate 250 g ai/ha, phytotoxicity rating 0-100 at 14 days after application, read-out: Pre-emerge Herbicidal Activity CASOB): 0%
2 | COc1c(Cl)cc(F)c(N2C(=O)c3ccccc3C2=O)c1NC(=O)c1ccc2ccccc2c1 [Compound 13-3, N-[4-chloro-6-fluoro-3-methoxy-2-(2-naphthoyl)aminophenyl]phthalimide] | 10% | 30% | 0% | 10% | 100% | 100% | 75% | 70% | 100% | 90% | 90% | 90% | 90% | 100% | 0% | 20% | Pre-emerge herbicidal activity, phytotoxicity rating SETVI ([10]; 63 g ai/ha): 10; Pre-emerge herbicidal activity, phytotoxicity rating SETVI ([10]; 250 g ai/ha): 40; Pre-emerge herbicidal activity, phytotoxicity rating DIGSA ([11]; 63 g ai/ha): 0; Pre-emerge herbicidal activity, phytotoxicity rating DIGSA ([11]; 250 g ai/ha): 30; Pre-emerge herbicidal activity, phytotoxicity rating SORHA ([14]; 63 g ai/ha): 0; Pre-emerge herbicidal activity, phytotoxicity rating SORHA ([14]; 250 g ai/ha): 10; Pre-emerge herbicidal activity, phytotoxicity rating ABUTH ([12]; 63 g ai/ha): 0; Pre-emerge herbicidal activity, phytotoxicity rating ABUTH ([12]; 250 g ai/ha): 20; Pre-emerge herbicidal activity, phytotoxicity rating CASOB ([13]; 63 g ai/ha): 0; Pre-emerge herbicidal activity, phytotoxicity rating CASOB ([13]; 250 g ai/ha): 30
